# Laboratory results taken from patent US20250236840A1, “SELECTIVE EXPANSION OF DIFFERENT SUBPOPULATIONS OF T CELLS BY THE ALTERATION OF CELL SURFACING SIGNALS AND SIGNAL RATIO” (LIFE TECHNOLOGIES AS, priority 2015, published 2025).
# Tested on: T cells
# Assay: Effect of AHR agonist on Th17 polarization (intracellular IL-17 after PMA/Ionomycin)
# Type: cell-based, human
# Protocol: FIG. 8. T cells were activated with CD3/CD5 (upper) or CD3/ICOS (lower) figure and expanded in presence of standard Th17-polarizing cytokines/antibodies (cytokines package), or with 100 nM FICZ and IL-1B and IL-6. At day 13 cultures were stimulated with PMA/Ionomycin for 4-5 hours before assessment of IL-17A and IL-17F expression. Cytograms show intracellular expression of the cytokines.
# Protocol permutation: T cells were activated with DYNABEADS® CD3/CD5, DYNABEADS® CD3/ICOS, or DYNABEADS® CD3/CD28 with equal signal strength and stoichiometry. Th17 polarization was facilitated by addition of i) cytokines (TGF-β, IL-23, IL-6, IL-1B) and αIL-4/α-IFN-γ neutralizing antibodies or ii) the AHR agonist FICZ plus IL-6, IL-1βa. Th17 polarization was assessed by intracellular staining of IL-17 and IFN-γ following PMA/Ionomycin activation of polarized T cells (FIG. 8).
smiles,measurement,setting,value
"O=Cc1c2c(cc3c1=Nc1ccccc1-3)=Nc1ccccc1-2 [FICZ, 6-formylindolo [3,2-b]carbazole]",Activity on T cells costimulated through CD5,"100 nM FICZ plus IL-1β and IL-6, CD3/CD5 beads, day 13",promising activity
same,Activity on T cells costimulated through ICOS,"100 nM FICZ plus IL-1β and IL-6, CD3/ICOS beads, day 13",not
same,IL-17 producing cells compared to standard polarizing conditions,"FICZ, IL-1β and IL-6 protocol",fewer
